In US20210386792A1, “A METHOD FOR INCREASING POPULATION OF SPERMATOGONIAL STEM CELLS” (priority 2018, published 2021):

Experiments:
TECs = assay: GDNF ELISA in conditioned media from TECs; format: cell-based, mouse; details: for GDNF production in conditioned media of TECs after FGF-2 treatment: wild-type mouse TECs
Experimental: Testis, lung, or liver ECs were plated (10,000 cells ml^−1) on 12 well dishes coated with 0.1% gelatin and cultured for 24 hours. Conditioned media was harvested at 24 and 48 hours after FGF-2 (2 ng ml^−1, 20 ng ml^−1 and 50 ng ml^−1) treatment and analyzed by ELISA for GDNF (Promega GDNF Emax immunoassay system, #G7621) following the manufacturer's instruction. Statistics was analyzed using Graph Pad Prism. For quantification of Gdnf mRNA, total RNA was isolated from the cells using Direct-zol RNA MiniPrep (Zymo Research) and reverse transcribed using High Capacity cDNA Reverse Transcription Kit (Appliedbiosystems), according to the manufacturer's instructions. All gene expression levels were normalized to GAPDH mRNA levels.
FIG. 2. a. Quantication of GDNF by ELISA in conditioned media from TECs, LuECs and LiECs after treatment with the indicated concentration of FGF-2 for 2 days, n=3. Bar=100 μm. Data are presented as the mean±s.e.m. b. Representative brighteld (BF) and GFP images of 2D cultures of GFP+ SSCs co-cultured with STO cells or TECs plus exogenous GDNF and FGF-2 on days 1 and 8 after seeding. Quantication of stem cell numbers 8 days after co-culture with STO or TECs and the average colony area are shown on the right, n=3. Data are presented as the mean±s.e.m. Bar=100 μm. *P<0.05. c. Images of 2D co-cultures of GFP+Thy1.2+ SSCs with TECs and immunostained with the germ cell marker DDX4. Inset: bar=10 μm. d. The 3D spheroid co-cultures of GFP+Thy-1.2+ SSCs with TECs or LuECs were generated with Matrigel but no exogenous GDNF or FGF-2. GFP+ Spheroid co-cultures were immunostained with DDX4 (red), Oct4 (white) and DAPI (blue) at day 15. Quantication of the average diameter and total number of colonies is shown on the right; n=3. All data are presented as the mean±s.e.m. Bar=50 m, *P<0.05. **P<0.01. e. Representative BF images merged with GFP images of serially passaged GFP+Thy-1.2+ SSCs co-cultured with TECs at the indicated passage number (1st, 2nd, 3rd or 4th) or day (D). […]

EGR-1 = assay: Western blot of EGR-1 expression in TECs; format: cell-based, mouse; details: TEC
Text: FIG. 5. GDNF expression in TECs is regulated by CaN-NFAT signaling. a. Immunouorescence images of testis sections immunostained with the stem cell markers DDX4 and Oct4 and DAPI to stain DNA. Testes were harvested from 1-week-old or 4-week-old Euploid or Ts65Dn mice. Quantication of DDX4+ and Oct4+ cells relative to DAPI per high-powered eld (HPF) is shown on the right, ***P<0.0001. Bar=50 μm. Two-way ANOVA test. b. […] Values are mean±s.e.m. n=4. c. Quantication of GDNF levels by ELISA in conditioned media from murine TECs, LuEC and LiEC after 2 ngml-1 FGF-2 treatment in the presence or absence of CsA. Values are mean±s.e.m., n=4. d. H&E-stained cross-sections from testes of age-matched Euploid, Ts65Dn or Ts65Dn mice 5 weeks after implantation with GFP+ TECs isolated from syngeneic wild-type mice (Ts65Dn+GFP+ TECs). Red dotted line encircles mature sperm (yellow arrow) in the lumen of the seminiferous tubules. Immunouorescence images with GFP and DAPI to stain DNA of testis sections from Ts65Dn+GFP+TECs mice. e. Western blot analysis of EGR-1 protein expression in TECs and LuECs untreated or after FGF-2 treatment, expression of constitutively active NFATc1 (caNFATc1) or an empty vector control. Actin was probed as a loading control. f. Quantication of nuclear translocation of EGR1 and NFATc1 in TECs after treatment with conditioned media (CM), 2 ng ml-1 FGF-2±CsA. Values are mean±s.e.m. g. […]

Substance: fibroblast growth factor-2 [FGF-2]
- GDNF expression in media of Fgfr1−/− TECs after FGF2 treatment (TECs; Fgfr1−/− TECs compared to Fgfr1+/+ wild-type TECs): no increase in GDNF expression
- GDNF production in conditioned media of TECs after FGF-2 treatment (TECs): induced significant levels of GDNF
- GDNF production in conditioned media of TECs after FGF-2 treatment (TECs; listed as FGF2): stimulated significant GDNF production
- EGR-1 expression after FGF-2 treatment (EGR-1): increased EGR-1 expression
